Measurements: patent US20250188171A1, “COMBINATION THERAPY INCLUDING ANTIBODIES THAT BIND EGFR AND CMET” (MERUS N.V., priority 2022, published 2025)
Each block holds one compound with its values, some of them ahead of it.

Key:
[1] = target: cMET (Homo sapiens, UniProt P08581); details: reported; cited from earlier work
[2] = tested on: LXFE2478 NSCLC PDX tumor model
Protocol: This model carries mutation EGFRex20ins (M766_A767insASV).
Insertion of 9 nucleotides in exon 20 in this model affects the EGFR tyrosine kinase domain (M766X) and confers resistance to small molecule EGFR inhibitors. This model carries no mutations in B-RAF, H-/N- and KRAS and PTEN genes (whole exome sequencing was done for both patient tumor and tumor xenograft with matching results).
Antitumor efficacy of all groups was assessed using the control vehicle/placebo buffer group as a reference. Tumor growth inhibition was determined by the comparison of RTVs of the test groups with the control group and is expressed as minimum T/C value in percent. For the evaluation of the statistical significance of antitumor efficacy, the non-parametric Kruskal-Wallis test followed by Dunn's method for multiple comparisons was performed. […] Statistical analysis was only carried out if at least 50% of the initially randomized animals still remained in the relevant group. Comparisons between test groups were carried out for the same days. All p-values <0.05 were considered statistically significant. Statistical calculations were performed using GraphPad Prism bioanalytic software (version 9.10 for Microsoft Windows, GraphPad Software, San Diego, California, USA.
Tumors were harvested from the donor PDX mice, cut into fragments (LXFE2478: 3-4 mm edge length) and inoculated into recipient nude mice subcutaneously (SC) in the flank. When the tumor implants reached approximately 80-200 mm3 in a sufficient number of animals, mice were assigned to groups. Randomization was performed based on “stratified distribution” method. Treatment started on the same day as randomization (day 0).
Treatment started the same day as enrollment (day 0). Mice were terminated during the observation period if the tumor volume was >1000 mm3.
Antibody was administered once a week intra peritoneally (IP) at 5 mg/kg and 25 mg/kg dose over a period of 5 weeks.
After randomization, animals were routinely monitored for morbidity and mortality, they were weighted twice a week, and tumor volumes (TV) were determined twice a week with a caliper. Relative body weight (RBW) was calculated by dividing the absolute weight or volume on a certain day by the absolute weight at day 0 multiplied by 100. Relative tumor volumes (RTV) were calculated by dividing the absolute individual tumor volume on a certain day by the absolute tumor volume at day 0 multiplied by 100.
For mice that lost >10% body weight, weight was measured daily, and animals had facilitated access to feed and water, and access to DietGel.
A dose-free observation period was included to compare duration of response and relapse (tumor re-growth) after treatment end. […]

[3] = tested on: HCC827-ER1 tumor cells; assay: HCC827-ER1 NSCLC CDX model with EGFR exon 19 deletion
Description: The model HCC827-ER1 was generated in BALB/c nude mice. It carries an EGFR mutation in exon 19 (deletion E746-A750), and has amplified c-MET copy number and Axl expression compared to the wild type HCC827 cell line.
Each mouse was inoculated in the right front flank region with HCC827-ER1 tumor cells mixed with Matrigel for tumor development. […] The date of randomization was denoted as day 0 and dosing was initiated from day 0. […] The dose-free observation period was included to compare duration of response and relapse (tumor re-growth) after treatment end. Mice with tumor volume exceeding 1500 mm^3, or with body weight loss over 20% relative to the weight at the first day of treatment were terminated during the treatment period. Antibody was administered twice a week intra peritoneally (i.p.) at 25 mg/kg dose over a period of 21 days, with a total of 7 doses. […] Eight mice in group 1 were treated with vehicle control (placebo buffer). Tumor volume (mm^3) was measured twice per week in 2 dimensions using a caliper. The animals were checked for any effects of tumor growth and treatments on behavior such as mobility, food and water consumption, body weight gain/loss, eye/hair matting and any other abnormalities. Body weights were measured twice per week after randomization.

[4] = tested on: cMET and EGFR; details: Moores et al. (2016); cited from earlier work
[5] = target: mouse EGFR (Mus musculus, UniProt Q01279); assay: Binding to mouse EGFR; details: in words

Sequence of cMET (P08581 25-1390): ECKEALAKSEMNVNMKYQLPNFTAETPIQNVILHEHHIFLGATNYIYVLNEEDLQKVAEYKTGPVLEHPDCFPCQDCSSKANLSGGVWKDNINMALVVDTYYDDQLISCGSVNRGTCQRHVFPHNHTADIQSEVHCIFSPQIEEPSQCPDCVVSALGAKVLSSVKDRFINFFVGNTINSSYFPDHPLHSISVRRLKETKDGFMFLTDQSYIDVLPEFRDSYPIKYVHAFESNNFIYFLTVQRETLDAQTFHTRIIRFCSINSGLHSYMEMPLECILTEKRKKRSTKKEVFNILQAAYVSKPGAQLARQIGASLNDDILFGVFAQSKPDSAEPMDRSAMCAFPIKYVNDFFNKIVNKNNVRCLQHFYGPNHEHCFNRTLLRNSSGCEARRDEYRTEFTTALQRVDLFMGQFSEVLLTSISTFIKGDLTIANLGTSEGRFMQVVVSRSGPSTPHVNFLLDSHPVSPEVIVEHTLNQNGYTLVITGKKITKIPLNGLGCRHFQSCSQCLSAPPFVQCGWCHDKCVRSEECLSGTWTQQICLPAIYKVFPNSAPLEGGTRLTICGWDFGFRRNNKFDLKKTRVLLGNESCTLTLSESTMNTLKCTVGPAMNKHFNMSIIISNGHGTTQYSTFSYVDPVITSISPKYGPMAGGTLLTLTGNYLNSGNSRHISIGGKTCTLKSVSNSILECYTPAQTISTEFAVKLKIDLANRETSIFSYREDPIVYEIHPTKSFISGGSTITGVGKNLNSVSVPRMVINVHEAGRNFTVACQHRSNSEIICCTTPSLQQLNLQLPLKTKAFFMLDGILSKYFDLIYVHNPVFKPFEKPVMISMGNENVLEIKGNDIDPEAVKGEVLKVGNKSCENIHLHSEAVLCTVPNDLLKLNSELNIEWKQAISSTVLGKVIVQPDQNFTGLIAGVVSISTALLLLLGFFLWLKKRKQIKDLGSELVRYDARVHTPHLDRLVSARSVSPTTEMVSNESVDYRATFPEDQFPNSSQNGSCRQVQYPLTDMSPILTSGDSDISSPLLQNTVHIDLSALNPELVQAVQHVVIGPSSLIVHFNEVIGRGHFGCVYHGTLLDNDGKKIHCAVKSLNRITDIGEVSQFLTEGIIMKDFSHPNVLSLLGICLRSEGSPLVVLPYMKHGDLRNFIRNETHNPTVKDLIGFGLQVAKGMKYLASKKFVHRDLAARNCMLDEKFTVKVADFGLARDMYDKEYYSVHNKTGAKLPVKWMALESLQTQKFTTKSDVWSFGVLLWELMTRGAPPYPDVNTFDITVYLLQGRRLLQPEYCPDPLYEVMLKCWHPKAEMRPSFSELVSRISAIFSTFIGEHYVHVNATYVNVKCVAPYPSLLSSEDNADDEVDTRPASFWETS

Compound: 5D5: reference anti-cMET antibody, Sema Domain, HGF block
MOA [1]: HGF block

Compound: C=CC(=O)Nc1cc(Nc2nccc(-c3cn(C)c4ccccc34)n2)c(OC)cc1N(C)CCN(C)C [Osimertinib]
anti-tumor efficacy, monotherapy ([2]; 5 and 25 mg/kg): dose-dependent anti-tumor efficacy | body weight loss ([2]; Osimertinib 25 mg/kg PO QD): > 10% | sensitivity of the model to treatment ([2]; at 5 mg/kg): reduced sensitivity | xenograft progression to 750 mm3, mice ([2]; mouse, in vivo): 6/9 | adverse events ([3]; 25 mg/kg): tumor scabbing or tumor ulceration in some mice | effect on tumor volume ([3]; mouse, in vivo): tumor regression

Compound: JNJ-61186372: bispecific cMET×EGFR antibody produced by controlled Fab-arm exchange (Moores et al 2016)
affinity imbalance, greater affinity for cMET than EGFR [4]: approximately 40 ×

binding to mouse EGFR [5]: do not
Compound: zalutumumab: EGFR monoclonal antibody in clinical development
